Results from ChEMBL document CHEMBL3102733, “The effect of chain length and unsaturation on Mtb Dxr inhibition and antitubercular killing activity of FR900098 analogs” (Bioorg Med Chem Lett, 2014).

Columns and labels:
[1] = test system: Mycobacterium tuberculosis; assay: Antimycobacterial activity against Mycobacterium tuberculosis H37Rv assessed as growth inhibition in presence of 7H9 nutrient-rich media; assay type: functional
[2] = test system: Mycobacterium tuberculosis; assay: Antimycobacterial activity against Mycobacterium tuberculosis H37Rv assessed as growth inhibition in presence of GAST minimal media; assay type: functional
[3] = target: T1, 1-deoxy-D-xylulose 5-phosphate reductoisomerase (Mycobacterium tuberculosis, UniProt P9WNS1); assay: Inhibition of Mycobacterium tuberculosis Dxr
T1 sequence (P9WNS1 whole entry): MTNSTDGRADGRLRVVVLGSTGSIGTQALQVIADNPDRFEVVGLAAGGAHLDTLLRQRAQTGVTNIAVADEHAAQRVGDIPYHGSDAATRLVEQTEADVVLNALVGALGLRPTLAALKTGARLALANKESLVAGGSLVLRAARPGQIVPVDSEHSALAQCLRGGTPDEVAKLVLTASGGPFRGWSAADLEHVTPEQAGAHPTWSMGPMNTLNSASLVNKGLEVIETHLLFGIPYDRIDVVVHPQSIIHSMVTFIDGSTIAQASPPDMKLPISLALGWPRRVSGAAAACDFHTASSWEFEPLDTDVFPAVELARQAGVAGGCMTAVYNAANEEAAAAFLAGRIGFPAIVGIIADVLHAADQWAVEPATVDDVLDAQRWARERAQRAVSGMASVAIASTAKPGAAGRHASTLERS

[4] = target: T2, 1-deoxy-D-xylulose 5-phosphate reductoisomerase (Mycobacterium tuberculosis) (UniProt P9WNS1); assay: Inhibition of Mycobacterium tuberculosis Dxr at 100 uM
T2 sequence (whole entry): T1 sequence (P9WNS1 whole entry)

SMILES | MIC [1] [µg/mL] | MIC [2] [µg/mL] | IC50 [3] [nM] | inhibition [4] [%]
CC(=O)N(O)C/C=C/P(=O)(OCOC(=O)C(C)(C)C)OCOC(=O)C(C)(C)C | 9.4 | 12.5 | – | –
CC(=O)N(O)C/C=C/P(=O)([O-])O.[Na+] | > 200 | 150 | 1070 | –
CC(=O)N(O)CCP(=O)([O-])O.[Na+] | > 200 | 150 | – | 74
CC(=O)N(O)CCCP(=O)(O)O [FR-900098] | – | – | 2390 | –
CCOP(=O)(CCN(O)C=O)OCC | > 500 | – | – | –
CC(=O)N(O)CCCCP(=O)([O-])O.[Na+] | > 200 | > 200 | – | 80
CCOP(=O)(CCCCCN(O)C(C)=O)OCC | > 200 | 200 | – | –
CC(=O)N(O)CCCCP(=O)(OCOC(=O)C(C)(C)C)OCOC(=O)C(C)(C)C | ≥ 200 | 150 | – | –
CC(=O)N(O)CCCCCP(=O)([O-])O.[Na+] | > 200 | > 200 | – | 86
CCOP(=O)(/C=C/CN(O)C(C)=O)OCC | > 200 | 150 | – | –
CCOP(=O)(CCN(O)C(C)=O)OCC | > 500 | – | – | –
CCOP(=O)(CCCCN(O)C(C)=O)OCC | > 200 | 75 | – | –
